According to the NIST ThermoML archive (doi:10.1021/je700021f):

Test: xn = mol fraction of the nth substance listed
Conditions: 101 kPa, Liquid, Pulse-echo method

CCCCCCCCCCl [1-chlorononane] + CCCCCCCCC
speed of sound [m/s]
Conditions	x2 = 0	x2 = 0.1	x2 = 0.3	x2 = 0.5	x2 = 0.7	x2 = 0.8	x2 = 0.85	x2 = 0.9
293.15 K	1297.2	1283.1	1268.5	1254.2	1243.5	1232.8	1231.8	1222.6
298.15 K	1278.2	1264.2	1249	1235	1223.5	1212.9	1211.9	1203.3
303.15 K	1259.5	1245.4	1229.8	1215.9	1203.6	1193	1192.1	1184.1
308.15 K	1240.9	1226.7	1210.6	1197	1183.9	1173.3	1172.4	1165
313.15 K	1222.5	1208.1	1191.7	1178.1	1164.3	1153.7	1152.8	1145.9
318.15 K	1204.3	1189.7	1172.8	1159.3	1144.9	1134.2	1133.4	1126.9
323.15 K	1186.3	1171.4	1154.1	1140.6	1125.6	1114.9	1114	1107.9
328.15 K	1168.4	1153.2	1135.6	1122	1106.5	1095.6	1094.7	1088.9
333.15 K	1150.7	1135.2	1117.1	1103.6	1087.5	1076.5	1075.5	1070
338.15 K	1133.2	1117.2	1098.9	1085.2	1068.7	1057.5	1056.4	1051.2
343.15 K	1115.9	1099.4	1080.7	1066.9	1050	1038.6	1037.4	1032.4
348.15 K	1098.8	1081.8	1062.7	1048.7	1031.5	1019.8	1018.5	1013.7
353.15 K	1081.9	1064.2	1044.9	1030.6	1013.1	1001.1	999.7	995
358.15 K	1065.1	1046.8	1027.2	1012.6	994.9	982.6	981	976.3
363.15 K	1048.5	1029.5	1009.6	994.7	976.8	964.2	962.4	957.8
368.15 K	1032.2	1012.3	992.2	976.9	958.9	945.8	943.9	939.2
373.15 K	1015.9	995.2	974.9	959.2	941.1	927.7	925.5	920.7
378.15 K	999.1	978.3	957.8	941.6	923.5	909.6	907.2	902.3
383.15 K	982.7	961.5	940.8	924.1	906	891.6	889	883.9
388.15 K	966.4	944.8	924	906.7	888.7	873.8	870.9	865.6
393.15 K	950.3	928.3	907.3	889.4	871.5	856.1	852.9	847.3
398.15 K	934.3	911.8	890.7	872.1	854.5	838.5	835	829.1
403.15 K	918.4	895.5	874.3	855	837.6	821	817.2	810.9
408.15 K	902.6	879.3	858	838	820.9	803.6	799.5	792.7
413.15 K	887	863.3	841.9	821.1	804.3	786.3	781.9	774.6
418.15 K	871.4	847.4	825.9	804.3	787.8	769.2	764.4	756.6
423.15 K	856	831.5	810	787.5	771.6	752.2	747	738.6
